Reference: US12595248B2, “PRMT5 inhibitors” (Merck Sharp & Dohme LLC, priority 2019, dated 2026)
Read-outs that look alike come from different tables or passages of the source.

Legend:
PRMT5 = target: T1, PRMT5 (Homo sapiens, UniProt O14744); assay: PRMT5 Cell Target Engagement (TE) Assay; format: cell-based; settings: MCF-7 cells, treated for 3 days, symmetric dimethylation of arginine (SDMA) by high content imaging
T1 construct: seeded with 4000 MCF-7 cells in 30 μl media; endogenous in cells; host or cells: MCF-7 cells
T1 sequence (O14744 whole entry): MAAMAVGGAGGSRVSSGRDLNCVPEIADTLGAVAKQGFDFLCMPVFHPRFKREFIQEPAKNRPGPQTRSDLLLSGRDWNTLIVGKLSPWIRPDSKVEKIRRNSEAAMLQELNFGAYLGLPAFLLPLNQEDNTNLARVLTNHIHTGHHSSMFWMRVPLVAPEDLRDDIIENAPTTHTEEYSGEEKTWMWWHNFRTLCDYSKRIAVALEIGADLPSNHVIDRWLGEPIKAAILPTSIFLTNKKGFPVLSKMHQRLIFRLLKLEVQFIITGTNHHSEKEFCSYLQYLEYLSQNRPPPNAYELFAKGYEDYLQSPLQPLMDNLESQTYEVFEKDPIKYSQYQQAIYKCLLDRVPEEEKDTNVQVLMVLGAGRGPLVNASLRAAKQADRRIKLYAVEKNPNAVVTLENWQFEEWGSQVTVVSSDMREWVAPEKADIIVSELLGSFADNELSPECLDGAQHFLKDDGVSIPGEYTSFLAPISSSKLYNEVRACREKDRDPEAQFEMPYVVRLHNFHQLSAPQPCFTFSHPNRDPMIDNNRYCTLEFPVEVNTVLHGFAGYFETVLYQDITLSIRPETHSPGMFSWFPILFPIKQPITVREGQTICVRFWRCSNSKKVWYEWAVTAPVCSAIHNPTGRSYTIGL
T1 sequence (Q9BQA1 whole entry partner): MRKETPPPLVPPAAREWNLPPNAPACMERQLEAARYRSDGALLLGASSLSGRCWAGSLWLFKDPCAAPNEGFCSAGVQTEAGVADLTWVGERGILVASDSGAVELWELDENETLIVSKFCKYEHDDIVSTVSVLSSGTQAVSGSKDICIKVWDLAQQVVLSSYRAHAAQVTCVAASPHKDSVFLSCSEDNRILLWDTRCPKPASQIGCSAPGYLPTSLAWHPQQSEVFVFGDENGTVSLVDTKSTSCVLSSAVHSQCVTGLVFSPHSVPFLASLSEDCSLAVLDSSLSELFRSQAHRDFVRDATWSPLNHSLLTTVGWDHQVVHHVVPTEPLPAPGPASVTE
From the text: PRMT5 Cell Target Engagement (TE) Assay
The PRMT5 TE assay is a biomarker assay for identifying compounds that inhibit symmetric dimethylation of arginine (SDMA) of PRMT5 substrates. The following substrates have been reported for PRMT5: histone H2A and H4 R3, Histone H3 R2, Histone H3 R8, spliceosome Sm proteins, ribosomal protein RPS10, p53, FEN1, nucleoplasmin, nucleolin, EGFR and EBNA. The assay focuses on detecting symmetrically dimethylated nuclear proteins using high content imaging technology. Detection of the expression of symmetrically dimethylated nuclear proteins is through a mixture of primary rabbit monoclonal antibodies to SDMA (CST 13222), which in turn recognized by an Alexafluor 488 dye-conjugated anti-rabbit IgG secondary antibody. The IN Cell Analyzer 2200 or Opera-Phenix measures nuclear Alexafluor 488 fluorescent dye intensity that is directly related to the level of expression of symmetrically dimethylated nuclear proteins at the single cell level. Nuclear AF488 dye intensities are compared to the mean value for DMSO treated cells (MIN) to report percent of inhibition for each compound-treated well.
In this assay, the cell potency (EC50) of each compound was determined from a ten point (1:3 serial dilution; top compound concentration of 10000 nM) titration curve using the following outlined procedure. Each well of a BD falcon collagen coated black/clear bottom 384-well plate was seeded with 4000 MCF-7 cells in 30 μl media and allowed to attach for 5 h. Media is ATCC-formulated Eagle's Minimum Essential Medium, Catalog No. 30-2003. To make the complete growth medium, the following components were added to the base medium: 0.01 mg/mL human recombinant insulin; fetal bovine serum to a final concentration of 10%. Additional 30 μl of media containing 2× compounds were added to each well. Cells were treated for 3 days in 37° C. CO2 incubator. On day 3, cells were fixed with Cytofix, permeabilized with 0.4% Triton-X-100/Cytofix, and washed with D-PBS without Ca/Mg. Cells were blocked with Licor Odessey blocking reagent for 1 h at room temperature, followed by incubation with anti-SDMA (1:1000) antibody at 4° C. overnight. 1° antibody was removed, followed by three washings with DPBS without Ca/Mg and 0.05% Tween20. Hoechst (5 μg/mL), Cell Mask deep stain (1:2000) and Alexa488-conjugated goat anti-rabbit IgG (2 μg/mL) was added for 1 h at room temperature. A final washing step (three washes) was performed before sealing plate for imaging on In Cell Analyzer 2200 or Opera-Phenix. Images from analyzer were uploaded to Columbus (at WP or BOS) for image analysis. IC50 values were determined by 4 parameters robust fit of percent fluorescence units vs. (Log10) compound concentrations.

[1] = target: T2, PRMT5-MEP50 enzyme complex (Homo sapiens, UniProt O14744); assay: PRMT5-MEP50 Enzyme Methylation Assay (Version B); format: biochemical
T2 construct: Full-length (FL)-PRMT5-MEP50 enzyme complex (recombinant proteins from baculovirus-transfected Sf21 cells: FL-PRMT5; MW=73837 kDa and FL-MEP50; MW=38614); made in house; host or cells: baculovirus-transfected Sf21 cells
T2 sequence (O14744 whole entry): as the sequence (O14744 whole entry) above
T2 sequence (Q9BQA1 whole entry partner): as the sequence (Q9BQA1 whole entry partner) above
Method: PRMT5-MEP50 Enzyme Methylation Assay (Version B)
PRMT5-MEP50 biochemical assay is a direct measurement of the methylation activity of the enzyme complex on a short peptide substrate derived from the N-terminus of H4 histone. Methylation experiment was performed with recombinant PRMT5-MEP50 protein complex. The assessment of inhibitory effect (EC50) of small molecules was measured by the effectiveness of the compounds to inhibit this reaction.
In this assay, the potency (EC50) of each compound was determined from a twenty-point (1:2 serial dilution; top compound concentration of 100000 nM) titration curve using the following outlined procedure. To each well of a white ProxiPlus 384 well-plate, 100 nL of compound (1% DMSO in final assay volume of 10 μL) was dispensed, followed by the addition of 8 μL of 1× assay buffer (50 mM Bicine pH 8.0, 1 mM DTT, 0.004% Tween20, 0.01% BSA) containing 0.625 nM of Full-length (FL)-PRMT5-MEP50 enzyme complex (recombinant proteins from baculovirus-transfected Sf21 cells: FL-PRMT5; MW=[…] and FL-MEP50; MW=38614). Plates were sealed and placed in a 37° C. humidified chamber for 30 minutes pre-incubation with compounds. Subsequently, each reaction was initiated by the addition of 2 μL 1× assay buffer containing 375 nM biotinylated H4R3 (MeI) peptide, and 75 μM S-(5′-Adenosyl)-L-Methionine Chloride (SAM). The final reaction in each well of 10 μL consists of 0.5 nM PRMT5-MEP50, 75 nM biotinylated-peptide, and 15 μM SAM. Methylation reactions were allowed to proceed for 150 minutes in a sealed plate at 37° C. Reactions were immediately quenched by the addition of 1 μL of 10% formic acid. Plates were then frozen and shipped to SAMDI™ Tech Inc. to determine the percent conversion from […]. Dose-response curves were generated by plotting percent effect (% product conversion; Y-axis) vs. Log 10 compound concentrations (X-axis). EC50 values were determined by non-linear regression according to models for either sigmoidal (4 parameters) or biphasic (7 parameters) dose-response curves.

[2] = first of two EC50s: 7 parameters biphasic model, read-out: Enzyme Methylation Assay Version B (EC50_1)
[3] = second of two EC50s: 7 parameters biphasic model, read-out: Enzyme Methylation Assay Version B (EC50_2)

Structure (SMILES)	EC50 (PRMT5)	EC50 [1, 2]	EC50 [1, 3]	EC50 ([1]; only one EC50 shown: 4 parameters single site sigmoidal model, 30 min pre-incubation, read-out: Enzyme Methylation Assay Version B (EC50))
O=C(c1cn2cc(Br)ccc2n1)N1CC[C@@H](N2CCc3ccccc3C2)[C@H](O)C1 (single isomer, unassigned) [Example 2]	509 nM	13 nM	5890 nM	
O=C(c1ccc(C(=O)N2C3CCC2COC3)cc1)N1CC[C@H](N2CCc3c(F)cccc3C2)[C@@H](O)C1 [Example 37, (4-(3-oxa-8-azabicyclo[3.2.1]octane-8-carbonyl)phenyl)((3S,4S)-4-(5-fluoro-3,4-dihydroisoquinolin-2(1H)-yl)-3-hydroxypiperidin-1-yl)methanone]	1850 nM	~87 nM	28600 nM	
CC(=O)N1CCC(Nc2nccc(C(=O)N3CC[C@@H](N4CCc5ccccc5C4)[C@H](O)C3)c2F)C(F)(F)C1 (single isomer, unassigned) [Example 17]	8420 nM	~191 nM	> 100000 nM	
O=C(c1ccc(-c2ncnn2C2CC2)cc1)N1CC[C@H](N2CCc3ccccc3C2)[C@@H](O)C1 [Example 60, (4-(1-cyclopropyl-1H-1,2,4-triazol-5-yl)phenyl)((3S,4S)-4-(3,4-dihydroisoquinolin-2(1H)-yl)-3-hydroxypiperidin-1-yl)methanone]	435 nM	14 nM	4680 nM	
CC(=O)N1CCC(Nc2cc(C(=O)N3CCC(N4Cc5ccccc5C(F)(F)C4)C(O)C3)c(F)cn2)CC1 (single isomer, unassigned) [Example 27, 1-(4-((5-fluoro-4-(-4-(4,4-difluoro-3,4-dihydroisoquinolin-2(1H)-yl)-3-hydroxypiperidine-1-carbonyl)pyridin-2-yl)amino)piperidin-1-yl)ethan-1-one]	> 10000 nM			809 nM
O=C(c1ccn(CC(F)(F)F)c(=O)c1)N1CC[C@H](N2CCc3ccccc3C2)[C@@H](O)C1 [Example 31, 4-((3S,4S)-4-(3,4-dihydroisoquinolin-2(1H)-yl)-3-hydroxypiperidine-1-carbonyl)-1-(2,2,2-trifluoroethyl)pyridin-2(1H)-one]	405 nM	~30 nM	34300 nM	
CCOc1cc(C(=O)N2C3CCC2COC3)ccc1C(=O)N1CC[C@H](N2CCc3ccccc3C2)[C@@H](O)C1 [Example 33]	27 nM	23 nM	4650 nM	
O=C(c1ccc(OCC(F)(F)F)nc1)N1CC[C@@H](N2CCc3ccccc3C2)[C@H](O)C1 [Example 44, ((3R,4R)-4-(3,4-dihydroisoquinolin-2(1H)-yl)-3-hydroxypiperidin-1-yl)(6-(2,2,2-trifluoroethoxy)pyridin-3-yl)methanone]	> 10000 nM	~312 nM	> 100000 nM	

More lines, in order of falling EC50 (PRMT5), values ahead:

EC50 (PRMT5)	EC50 [1, 2]	EC50 [1, 3]	EC50 ([1]; only one EC50 shown: 4 parameters single site sigmoidal model, 30 min pre-incubation, read-out: Enzyme Methylation Assay Version B (EC50))	Structure (SMILES)
331 nM	~14 nM	15100 nM		CC1(C)CC(=O)Nc2cc(C(=O)N3CC[C@H](N4CCc5ccccc5C4)[C@@H](O)C3)ccc21 [Example 96, 7-((3S,4S)-4-(3,4-dihydroisoquinolin-2(1H)-yl)-3-hydroxypiperidine-1-carbonyl)-4,4-dimethyl-3,4-dihydroquinolin-2(1H)-one]
275 nM	~20 nM	17200 nM		CC(=O)N1CCC(Nc2nccc(C(=O)N3CC[C@H](N4CCc5ccccc5C4)[C@@H](O)C3)c2F)C(F)(F)C1 (single isomer, unassigned) [Example 14]
57 nM	6.8 nM	3720 nM		CC(=O)N1CCC(Nc2nccc(C(=O)N3CC[C@H](N4CCc5ccccc5C4)[C@@H](O)C3)c2F)C(F)(F)C1 (single isomer, unassigned) [Example 15]
15 nM	4.8 nM	1720 nM		CC1OC(=O)Nc2cc(C(=O)N3CC[C@H](N4CCc5ccccc5C4)[C@@H](O)C3)c(F)cc21 (single isomer, unassigned) [Example 100]
4.4 nM	5.3 nM	3760 nM		CC(=O)N1CCC(Nc2cc(C(=O)N3CC[C@H](N4CCc5ccccc5C4)[C@@H](O)C3)c(F)cn2)C(F)(F)C1 (single isomer, unassigned) [Example 86]
